Test results as given in ChEMBL document CHEMBL4371010, “Thermodynamics of DNA Minor Groove Binders” (2019).
Values after ≈ are worked out from the molar mass of the structure shown.

Legend:
Staphylococcus aureus = assay: Antibacterial activity against methicillin-resistant Staphylococcus aureus; format: functional
Clostridioides difficile = assay: […] activity against Clostridium difficile; format: functional

SMILES | MIC (Staphylococcus aureus) [µM] | MIC (Clostridioides difficile) [µg/mL]
COc1cccc(C(=O)Nc2cc(C(=O)Nc3cc(C(=O)Nc4cc(C(=O)NCCCN(C)C)n(C)c4)n(CCC(C)C)c3)n(C)c2)c1 | 2 (≈ 1.32 µg/mL) | –
CC1(C)S[C@@H]2[C@H](NC(=O)[C@H](N)c3ccc(O)cc3)C(=O)N2[C@H]1C(=O)O [AMOXICILLIN] | 16.1 (≈ 5.88 µg/mL) | –
Cn1cc(NC(=O)c2cc(NC(=O)c3ccc(/C=C/c4cnc5ccccc5c4)cc3)cn2C)cc1C(=O)NCCN1CCOCC1 [MGB-BP-3] | – | 1 (≈ 1.58 µM)
CN[C@H](CC(C)C)C(=O)N[C@H]1C(=O)N[C@@H](CC(N)=O)C(=O)N[C@H]2C(=O)N[C@H]3C(=O)N[C@H](C(=O)N[C@H](C(=O)O)c4cc(O)cc(O)c4-c4cc3ccc4O)[C@H](O)c3ccc(c(Cl)c3)Oc3cc2cc(c3O[C@@H]2O[C@H](CO)[C@@H](O)[C@H](O)[C@H]2O[C@H]2C[C@](C)(N)[C@H](O)[C@H](C)O2)Oc2ccc(cc2Cl)[C@H]1O [VANCOMYCIN] | – | 1 (≈ 0.69 µM)
